Measured values: ChEMBL document CHEMBL6182909 (J Med Chem, 2025)
Converted amounts (≈) assume the structure as drawn. Each block holds one molecule with its values, some of them ahead of it. The source made the active and inactive calls. The rule behind the calls is not given here.

Experiments:
[1] = Oral bioavailability in rat at 5 mg/kg; format: ADME, organism-based; details: in vivo
[2] = Volume of distribution at steady state in dog at 2 mg/kg, iv; format: ADME, organism-based, Canis lupus familiaris; details: in vivo, read-out: Vdss
[3] = AUC (0 to infinity) in Cynomolgus monkey at 2 mg/kg, iv; format: ADME, organism-based, Macaca fascicularis; details: in vivo
[4] = Half life in mouse at 5 mg/kg, po; format: ADME, organism-based; details: in vivo
[5] = Half life in rat at 2 mg/kg, iv; format: ADME, organism-based; details: in vivo
[6] = Half life in Cynomolgus monkey at 5 mg/kg, po; format: ADME, organism-based, Macaca fascicularis; details: in vivo
[7] = Half life in rat at 5 mg/kg, po; format: ADME, organism-based; details: in vivo
[8] = AUC (0 to infinity) in dog at 5 mg/kg, po; format: ADME, organism-based, Canis lupus familiaris; details: in vivo
[9] = Volume of distribution at steady state in Cynomolgus monkey at 2 mg/kg, iv; format: ADME, organism-based, Macaca fascicularis; details: in vivo, read-out: Vdss
[10] = Drug concentration in brain of fasted male Sprague-Dawley rat assessed as inhibition of food intake at 10 mg/kg, po measured after 1 hr relative to control; format: organism-based; details: read-out: Ct
[11] = Tmax in dog at 5 mg/kg, po; format: ADME, organism-based, Canis lupus familiaris; details: in vivo
[12] = Drug concentration in plasma of fasted male Sprague-Dawley rat assessed as inhibition of food intake at 10 mg/kg, po measured after 1 hr relative to control; format: organism-based
Rattus norvegicus [13] = experiment: Hypophagic effect in fasted male Sprague-Dawley rat assessed as effective dose administered orally measured after 1 hr relative to control; format: functional; details: route po
[14] = Half life in dog at 2 mg/kg, iv; format: ADME, organism-based, Canis lupus familiaris; details: in vivo
[15] = AUC (0 to infinity) in mouse at 2 mg/kg, iv; format: ADME, organism-based; details: in vivo
[16] = Clearance in mouse at 2 mg/kg, iv; format: ADME, organism-based; details: in vivo
[17] = Clearance in dog at 2 mg/kg, iv; format: ADME, organism-based, Canis lupus familiaris; details: in vivo
[18] = Volume of distribution at steady state in rat at 2 mg/kg, iv; format: ADME, organism-based; details: in vivo, read-out: Vdss
[19] = AUC (0 to infinity) in mouse at 5 mg/kg, po; format: ADME, organism-based; details: in vivo
[20] = Half life in dog at 5 mg/kg, po; format: ADME, organism-based, Canis lupus familiaris; details: in vivo
[21] = AUC (0 to infinity) in dog at 2 mg/kg, iv; format: ADME, organism-based, Canis lupus familiaris; details: in vivo
[22] = Oral bioavailability in dog at 5 mg/kg; format: ADME, organism-based, Canis lupus familiaris; details: in vivo
[23] = Renal clearance in dog at 2 mg/kg, iv; format: ADME, organism-based, Canis lupus familiaris; details: in vivo
[24] = Oral bioavailability in mouse at 5 mg/kg; format: ADME, organism-based; details: in vivo
[25] = Clearance in Cynomolgus monkey at 2 mg/kg, iv; format: ADME, organism-based, Macaca fascicularis; details: in vivo
[26] = Cmax in dog at 5 mg/kg, po; format: ADME, organism-based, Canis lupus familiaris; details: in vivo
[27] = Volume of distribution at steady state in mouse at 2 mg/kg, iv; format: ADME, organism-based; details: in vivo, read-out: Vdss
[28] = AUC (0 to infinity) in rat at 2 mg/kg, iv; format: ADME, organism-based; details: in vivo
[29] = Tmax in rat at 5 mg/kg, po; format: ADME, organism-based; details: in vivo
[30] = Cmax in rat at 5 mg/kg, po; format: ADME, organism-based; details: in vivo
[31] = Renal clearance in Cynomolgus monkey at 2 mg/kg, iv; format: ADME, organism-based, Macaca fascicularis; details: in vivo
[32] = Clearance in rat at 2 mg/kg, iv; format: ADME, organism-based; details: in vivo
[33] = Renal clearance in rat at 2 mg/kg, iv; format: ADME, organism-based; details: in vivo
[34] = AUC (0 to infinity) in Cynomolgus monkey at 5 mg/kg, po; format: ADME, organism-based, Macaca fascicularis; details: in vivo
[35] = Cmax in mouse at 5 mg/kg, po; format: ADME, organism-based; details: in vivo
Rattus norvegicus [36] = experiment: Hypophagic effect in fasted male Sprague-Dawley rat assessed as inhibition of food intake at 5 mg/kg, po measured after 1 hr relative to control; format: functional
[37] = Oral bioavailability in Cynomolgus monkey at 5 mg/kg; format: ADME, organism-based, Macaca fascicularis; details: in vivo
[38] = Tmax in Cynomolgus monkey at 5 mg/kg, po; format: ADME, organism-based, Macaca fascicularis; details: in vivo
[39] = Half life in mouse at 2 mg/kg, iv; format: ADME, organism-based; details: in vivo
[40] = Tmax in mouse at 5 mg/kg, po; format: ADME, organism-based; details: in vivo
[41] = Cmax in Cynomolgus monkey at 5 mg/kg, po; format: ADME, organism-based, Macaca fascicularis; details: in vivo
[42] = AUC (0 to infinity) in rat at 5 mg/kg, po; format: ADME, organism-based; details: in vivo
[43] = Half life in Cynomolgus monkey at 2 mg/kg, iv; format: ADME, organism-based, Macaca fascicularis; details: in vivo
[44] = Unbound fraction in plasma of fasted male Sprague-Dawley rat at 10 mg/kg, po; format: ADME, organism-based
[45] = Stability in hepatocytes (unknown origin); format: ADME, cell-based, Hepatocyte
[46] = Basicity constant, pKa of compound; format: physicochemical
Rattus norvegicus [47] = experiment: Hypophagic effect in fasted male Sprague-Dawley rat at 10 mg/kg, po measured after 1 hr in presence of SB242084; format: functional, organism-based
[48] = Stability in microsomes (unknown origin); format: ADME, Microsome
[49] = Water solubility of compound; format: physicochemical; details: buffer
Rattus norvegicus [50] = experiment: Hypophagic effect in fasted male Sprague-Dawley rat assessed as inhibition of food intake at 10 mg/kg, po measured after 1 hr relative to control; format: functional; details: Rattus norvegicus, Sprague-Dawley, po
[51] = Unbound fraction in brain of fasted male Sprague-Dawley rat at 10 mg/kg, po; format: ADME, organism-based; details: in vivo

bioavailability [1]: 89%
Vd [2]: 1.85 L/kg
AUC(0-inf) [3]: 2970 ng·h/mL
half-life [4]: 1.5 h
half-life [5]: 1.6 h
half-life [6]: 5.52 h
half-life [7]: 2.5 h
AUC(0-inf) [8]: 3920 ng·h/mL
Vd [9]: 4.36 L/kg
concentration at 1 h [10]: 832 ng/g
Tmax [11]: 0.58 h
concentration at 1 h [12]: 960 ng/mL
half-life [14]: 1.3 h
AUC(0-inf) [15]: 318 ng·h/mL
clearance [16]: 68.8 mL/min/kg
clearance [17]: 20.7 mL/min/kg
Vd [18]: 3.69 L/kg
AUC(0-inf) [19]: 910 ng·h/mL
half-life [20]: 4 h
AUC(0-inf) [21]: 1620 ng·h/mL
bioavailability [22]: 97%
CL renal [23]: 0.00333 mL/min/kg
bioavailability [24]: 100%
clearance [25]: 11.5 mL/min/kg
Cmax [26]: 1590 ng/mL
Vd [27]: 2.98 L/kg
AUC(0-inf) [28]: 577 ng·h/mL
Tmax [29]: 0.5 h
Cmax [30]: 450 ng/mL
CL renal [31]: 0.0333 mL/min/kg
clearance [32]: 58.5 mL/min/kg
CL renal [33]: 9.65 mL/min/kg
AUC(0-inf) [34]: 4300 ng·h/mL
Cmax [35]: 820 ng/mL
bioavailability [37]: 58%
Tmax [38]: 3 h
half-life [39]: 0.66 h
Tmax [40]: 0.25 h
Cmax [41]: 430 ng/mL
AUC(0-inf) [42]: 1280 ng·h/mL
half-life [43]: 6.8 h
SMILES: C[C@H]1CN2CCNCc3ccc(C(=O)NCC(F)F)c1c32 [BEXICASERIN]
ED50 (Rattus norvegicus [13]): 2.8 mg/kg
inhibition in vivo at 5 mg/kg (Rattus norvegicus [36]): 81%

Vd [2]: 1.41 L/kg
AUC(0-inf) [3]: 2000 ng·h/mL
half-life [4]: 0.6 h
half-life [5]: 0.56 h
half-life [6]: 2.07 h
half-life [7]: 1.51 h
AUC(0-inf) [8]: 4130 ng·h/mL
fraction unbound [44]: 0.87
Vd [9]: 1.8 L/kg
Stability [45]: Stable
Tmax [11]: 0.92 h
half-life [14]: 1.38 h
AUC(0-inf) [15]: 340 ng·h/mL
pKa [46]: 7.93
clearance [16]: 99 mL/min/kg
clearance [17]: 18.3 mL/min/kg
Vd [18]: 1.89 L/kg
AUC(0-inf) [19]: 720 ng·h/mL
half-life [20]: 1.9 h
AUC(0-inf) [21]: 1830 ng·h/mL
Stability [48]: Stable
bioavailability [22]: 90.2%
CL renal [23]: 1.17 mL/min/kg
solubility [49]: 91 mg/mL (≈ 393 mM)
bioavailability [24]: 85.6%
clearance [25]: 16.7 mL/min/kg
Cmax [26]: 1820 ng/mL
Vd [27]: 2.44 L/kg
AUC(0-inf) [28]: 770 ng·h/mL
Tmax [29]: 0.58 h
Cmax [30]: 570 ng/mL
CL ([31]; iv, 2 mg/kg): 4.5 mL/min/kg
clearance [32]: 44.3 mL/min/kg
CL renal [33]: 24 mL/min/kg
AUC(0-inf) [34]: 3580 ng·h/mL
Cmax [35]: 940 ng/mL
bioavailability [37]: 71.2%
Tmax [38]: 2.33 h
half-life [39]: 0.41 h
Tmax [40]: 0.25 h
Fu [51]: 75%
Cmax [41]: 700 ng/mL
AUC(0-inf) [42]: 2020 ng·h/mL
half-life [43]: 1.49 h
SMILES: CNC(=O)c1ccc2c3c1CCN3CCNC2
ED50 (Rattus norvegicus [13]): 6.4 mg/kg
Activity (Rattus norvegicus [47]): inactive
inhibition in vivo at 10 mg/kg (Rattus norvegicus [50]): 87%
